The conditions of series [1]: DTA.
Series [2] is described as follows: Molar enthalpy of transition or fusion. The following applies: DSC.

± gives the expanded uncertainty stated by the source.

In the case of `CCCCC(=O)[O-].[Li+]` [lithium pentanoate], the Normal melting temperature in series [1] (Crystal 1) was 301.10 ± 0.7 °C. In series [1] (Crystal 2), the Triple point temperature stood at 323.45 ± 0.7 K. The results for the “Molar enthalpy of transition or fusion” value in series [2] (Crystal 1) and in series [2] (Crystal 2) were 5.25 ± 0.335 kcal/mol and 0.941 ± 0.0693 kcal/mol, respectively.

As to `O=C[O-].[Li+]` [lithium methanoate], the Normal melting temperature in series [1] (Crystal 1) came to 272.20 ± 0.7 °C. For the same molecule, the Triple point temperature in series [1] (Crystal 2) came to 508.55 ± 0.7 K. Moreover, the “Molar enthalpy of transition or fusion” value in series [2] (Crystal 1) came out at 3.84 ± 0.239 kcal/mol; in series [2] (Crystal 2), 0.451 ± 0.043 kcal/mol.

As for `CCCCCC(=O)[O-].[Li+]` [lithium hexanoate], the Normal melting temperature in series [1] (Crystal) worked out at 287.20 ± 0.7 °C. The “Molar enthalpy of transition or fusion” value in series [2] (Crystal) was found to be 5.49 ± 0.359 kcal/mol.

As to `CCCCCCCCCCC(=O)[O-].[Li+]` [lithium undecanoate], the Normal melting temperature in series [1] (Crystal 1) was 235.50 ± 0.7 °C. Besides, the Triple point temperature in series [1] (Crystal 2) was 364.55 ± 0.7 K. For the same molecule, the “Molar enthalpy of transition or fusion” value in series [2] (Crystal 1) came to 6.76 ± 0.43 kcal/mol; in series [2] (Crystal 2), 3.3 ± 0.21 kcal/mol.

For the molecule `CCCCCCCC(=O)[O-].[Li+]` [lithium octanoate], the Normal melting temperature in series [1] (Crystal) came to 264.30 ± 0.7 °C. In addition, the “Molar enthalpy of transition or fusion” value in series [2] (Crystal) was 5.73 ± 0.359 kcal/mol.

As for `CCCCCCCCC(=O)[O-].[Li+]` [lithium nonanoate], the Normal melting temperature in series [1] (Crystal 1) is 251.10 ± 0.7 °C. In series [1] (Crystal 2), the Triple point temperature is recorded as 348.95 ± 0.7 K. The “Molar enthalpy of transition or fusion” value in series [2] (Crystal 1) stood at 6.13 ± 0.382 kcal/mol; in series [2] (Crystal 2) it was 1.92 ± 0.129 kcal/mol.

Turning to `CCCCCCC(=O)[O-].[Li+]` [lithium heptanoate], the Normal melting temperature in series [1] (Crystal 1) is 274.40 ± 0.7 °C. In addition, the Triple point temperature in series [1] (Crystal 2) is on record as 316.55 ± 0.7 K. The figures for the “Molar enthalpy of transition or fusion” value in series [2] (Crystal 1) and in series [2] (Crystal 2) were 5.93 ± 0.382 kcal/mol and 1.49 ± 0.1 kcal/mol, respectively.

In the case of `CCCCCCCCCC(=O)[O-].[Li+]` [lithium decanoate], the Triple point temperature in series [1] (Crystal 2) turned out to be 309.65 ± 0.7 K. In addition, in series [2] (Crystal 2), the “Molar enthalpy of transition or fusion” value was determined as 0.111 ± 0.0287 kcal/mol.

As for `CCC(=O)[O-].[Li+]` [propionic acid, lithium salt], the Normal melting temperature in series [1] (Crystal 1) came out at 331.00 ± 0.7 °C. The Triple point temperature in series [1] (Crystal 2) is on record as 530.55 ± 0.7 K. The “Molar enthalpy of transition or fusion” value stood at 3.81 ± 0.239 kcal/mol in series [2] (Crystal 1) and 0.817 ± 0.0645 kcal/mol in series [2] (Crystal 2).

As to `CC(=O)[O-].[Li+]` [lithium acetate], in series [1] (Crystal), the Normal melting temperature came out at 283.10 ± 0.7 °C. Moreover, the “Molar enthalpy of transition or fusion” value in series [2] (Crystal) was 2.87 ± 0.186 kcal/mol.

In the case of `CCCCCCCCCCCC(=O)[O-].[Li+]` [lithium dodecanoate], the Normal melting temperature in series [1] (Crystal 1) is 227.40 ± 0.7 °C. The Triple point temperature is recorded as 346.05 ± 0.7 K in series [1] (Crystal 2) and 314.45 ± 0.7 K in series [1] (Crystal 3). Besides, the “Molar enthalpy of transition or fusion” value in series [2] (Crystal 1) was found to be 6.78 ± 0.43 kcal/mol; in series [2] (Crystal 2), 1.66 ± 0.112 kcal/mol; in series [2] (Crystal 3), 0.138 ± 0.0335 kcal/mol.

On to `CCCC(=O)[O-].[Li+]` [lithium butanoate], for which the Normal melting temperature in series [1] (Crystal) was found to be 316.80 ± 0.7 °C. Further, the “Molar enthalpy of transition or fusion” value in series [2] (Crystal) came to 4.96 ± 0.311 kcal/mol.

(Values after the NIST ThermoML archive (doi:10.1021/je400054m).)
